Experimental data reported in US20150342234A1, “Steviol Glycoside Compositions Sensory Properties” (Evolva SA, priority 2012, published 2015).

Columns and labels:
[1] = system: panel of 9 tasters (8 trained sensory panellists and 1 Evolve employee); assay: Agreed reference intensity scores for the commercial Reb A reference sample (vocabulary determination); format: in vivo; settings: agreed approximate intensity score, 0-100 scale; 0.0385% w/v
Procedure: (§1) A sensory evaluation of the sample isolated in Example 5 was conducted by a commercial consumer research and sensory analysis company, using a rapid profiling protocol. The sensory profile of the yeast fermented Reb A product was compared to that of a commercially available RebA product by a panel of 9 tasters (8 trained sensory panellists and 1 Evolve employee), over a two hour period. […] Both products were dissolved in Highland Springs bottled mineral water (Highland Spring Group, Blackford, Pertishire, United Kingdom) at 0.0385% w/v, which is approximately equivalent in sweetness to 8% sucrose.
An appropriate vocabulary was determined using the commercial Reb A solution as a reference sample. As a starting point, the panel used an attribute vocabulary agreed to for previous sweetener sensory analyses, including sweetness onset time, sweetness build, sweetness, bitterness, etc. Panelists discussed and agreed which of the attributes were present in the reference sample and also agreed on approximate intensity scores on a 0-100 scale for each attribute. Table 15 describes each characteristic that was assessed and how each characteristic was scored for the reference sample.

[2] = system: panel of 9 tasters (8 trained sensory panellists and 1 Evolve employee); assay: Sensory evaluation by rapid profiling protocol, blinded samples, two replicates; format: in vivo; settings: for Sweetness build Fl. mean score / Sweetness onset Fl. mean score: after 1st sip, mean of Rep 1 and Rep 2, 0.0385% w/v in mineral water; for Sweetness build Fl. mean score / Sweetness onset Fl. mean score / Acid At. mean score / Artificial sweetness At. mean score / Bitter At. mean score / Overall Sweetness At. mean score / liquorice At. mean score / Acid Fl. mean score / Artificial sweetness Fl. mean score / Bitter Fl. mean score / Liquorice FL mean score / Overall Sweetness Fl. mean score / Body/ thickness Mf. mean score / Mouth coating Mf. mean score / Mouth drying Mf. mean score / Mouth watering Mf. mean score / Tingling Mf. mean score: 0-100 scale; for Acid At. mean score / Artificial sweetness At. mean score / Bitter At. mean score / Overall Sweetness At. mean score / liquorice At. mean score: aftertaste; for Acid At. mean score / Artificial sweetness At. mean score / Bitter At. mean score / Overall Sweetness At. mean score / liquorice At. mean score / Acid Fl. mean score / Artificial sweetness Fl. mean score / Bitter Fl. mean score / Liquorice FL mean score / Overall Sweetness Fl. mean score / Body/ thickness Mf. mean score / Mouth coating Mf. mean score / Mouth drying Mf. mean score / Mouth watering Mf. mean score / Tingling Mf. mean score: mean of 2 replicates, 0.0385% w/v; for Acid Fl. mean score / Artificial sweetness Fl. mean score / Bitter Fl. mean score / Liquorice FL mean score / Overall Sweetness Fl. mean score: flavor; for Acid Fl. mean score / Artificial sweetness Fl. mean score / Bitter Fl. mean score / Liquorice FL mean score / Overall Sweetness Fl. mean score / Body/ thickness Mf. mean score: after second and third sip; for Body/ thickness Mf. mean score / Mouth coating Mf. mean score / Mouth drying Mf. mean score / Mouth watering Mf. mean score / Tingling Mf. mean score: mouthfeel
Procedure: as §1
After a break, the panelists were presented one blinded sample of the yeast-derived RebA solution and one blinded sample of the commercial RebA solution. Sample were presented in a balanced order to the panelists. For each blinded sample, panelists carried out the following tasting procedure. Panelists were instructed take one sip of the sample and score the Sweetness Build and Sweetness Onset attributes. A second and third sip of the sample were then taken, and panelists were instructed to score Flavor Attributes and Mouth Feel attribute Body/thickness. Each panelist then took a final sip of the sample and was asked to score Aftertaste and Mouth Sensations at 20 seconds and 120 seconds after the final sip.
All panellist scores were entered into a computer using Compusense® data collection software (Compusense, Guelph, Ontario, Canada). Agreed reference scores were marked on the scales as a guide. A rest period of 5 minutes duration was observed between samples and palate cleansers of Carr's® water crackers (Kellogg's, Battle Creek, Mich.) and Highland Spring bottled mineral water applied during this time.
After one replicate of testing had been completed, panelists discussed differences between products. Panelists thought there were some subtle differences between products but no new flavors, off flavors, or mouth sensations were experienced. It was therefore decided to carry out a second replicate testing of the two Reb A samples using the same vocabulary and different blinding codes. The same tasting procedure was used for the second replicate as that used for the first replicate.
Mean scores were calculated for each attribute and sample over the two replicates (Rep 1 and Rep 2). Table 16 provides the mean scores for each attribute. Scores in bold shown a statistically significant difference between the two RebA samples.

[3] = first block (20 seconds after final sip)
[4] = second block (120 seconds after final sip)

## C=C1C[C@@]23CC[C@H]4[C@@](C)(CCC[C@@]4(C)C(=O)O[C@@H]4O[C@H](CO)[C@@H](O)[C@H](O)[C@H]4O)[C@@H]2CC[C@]1(O[C@@H]1O[C@H](CO)[C@@H](O)[C@H](O[C@@H]2O[C@H](CO)[C@@H](O)[C@H](O)[C@H]2O)[C@H]1O[C@@H]1O[C@H](CO)[C@@H](O)[C@H](O)[C@H]1O)C3 [Commercial RebA, rebaudioside A]
[1]
  Acidic (Flavor/Aftertaste) Score after 3 d sip (20 sec): 10
  Acidic (Flavor/Aftertaste) Score after 3 d sip (2 min): 10
  Acidic (Flavor/Aftertaste) Score after 3 d sip (immediate): 10
  Artificial sweetness (Flavor/Aftertaste) Score after 3 d sip (20 sec): 35
  Artificial sweetness (Flavor/Aftertaste) Score after 3 d sip (2 min): 20
  Artificial sweetness (Flavor/Aftertaste) Score after 3 d sip (immediate): 55
  Bitter (Flavor/Aftertaste) Score after 3 d sip (20 sec): 20
  Bitter (Flavor/Aftertaste) Score after 3 d sip (2 min): 20
  Bitter (Flavor/Aftertaste) Score after 3 d sip (immediate): 10
  Body/thickness (Mouthfeel) Score after 3 d sip (immediate): 40
  Liquorice (Flavor/Aftertaste) Score after 3 d sip (20 sec): 35
  Liquorice (Flavor/Aftertaste) Score after 3 d sip (2 min): 30
  Liquorice (Flavor/Aftertaste) Score after 3 d sip (immediate): 30
  Mouth coating (Mouthfeel) Score after 3 d sip (20 sec): 30
  Mouth coating (Mouthfeel) Score after 3 d sip (2 min): 30
  Mouth drying (Mouthfeel) Score after 3 d sip (20 sec): 35
  Mouth drying (Mouthfeel) Score after 3 d sip (2 min): 35
  Mouth watering (Mouthfeel) Score after 3 d sip (20 sec): 0
  Mouth watering (Mouthfeel) Score after 3 d sip (2 min): 20
  Overall Sweetness (Flavor/Aftertaste) Score after 3 d sip (20 sec): 50
  Overall Sweetness (Flavor/Aftertaste) Score after 3 d sip (2 min): 50
  Overall Sweetness (Flavor/Aftertaste) Score after 3 d sip (immediate): 70
  Sweetness build (Flavor) Score after 1st sip: 30
  Sweetness onset (Flavor) Score after 1st sip: 5
  Tingling (Mouthfeel) Score after 3 d sip (20 sec): 10
  Tingling (Mouthfeel) Score after 3 d sip (2 min): 5
[2]
  Sweetness build Fl. mean score: 34.5
  Sweetness onset Fl. mean score: 5.6
  Acid Fl. mean score: 10.6
  Artificial sweetness Fl. mean score: 54.0
  Bitter Fl. mean score: 20.7
  Liquorice FL mean score: 18.0
  Overall Sweetness Fl. mean score: 61.7
  Body/ thickness Mf. mean score: 39.4
[2]; [3]
  Acid At. mean score: 8.5
  Artificial sweetness At. mean score: 40.8
  Bitter At. mean score: 22.1
  Overall Sweetness At. mean score: 52.8
  liquorice At. mean score: 21.1
  Mouth coating Mf. mean score: 27.4
  Mouth drying Mf. mean score: 40.1
  Mouth watering Mf. mean score: 10.9
  Tingling Mf. mean score: 13.0
[2]; [4]
  Acid At. mean score: 8.9
  Artificial sweetness At. mean score: 32.6
  Bitter At. mean score: 20.6
  Overall Sweetness At. mean score: 49.6
  liquorice At. mean score: 16.3
  Mouth coating Mf. mean score: 26.3
  Mouth drying Mf. mean score: 42.7
  Mouth watering Mf. mean score: 14.7
  Tingling Mf. mean score: 12.9
[2]; time to peak in sweetness intensity, 95% confidence level
  sweetness build score compared with the yeast derived RebA sample: significantly longer

## C=C1C[C@@]23CC[C@H]4[C@@](C)(CCC[C@@]4(C)C(=O)O[C@@H]4O[C@H](CO)[C@@H](O)[C@H](O)[C@H]4O)[C@@H]2CC[C@]1(O[C@@H]1O[C@H](CO)[C@@H](O)[C@H](O[C@@H]2O[C@H](CO)[C@@H](O)[C@H](O)[C@H]2O)[C@H]1O[C@@H]1O[C@H](CO)[C@@H](O)[C@H](O)[C@H]1O)C3 [Yeast derived Reb A, rebaudioside A]
[2]
  Sweetness build Fl. mean score: 30.2
  Sweetness onset Fl. mean score: 5.5
  Acid Fl. mean score: 8.3
  Artificial sweetness Fl. mean score: 41.8
  Bitter Fl. mean score: 11.8
  Liquorice FL mean score: 17.2
  Overall Sweetness Fl. mean score: 58.5
  Body/ thickness Mf. mean score: 37.1
[2]; [3]
  Acid At. mean score: 6.9
  Artificial sweetness At. mean score: 33.8
  Bitter At. mean score: 17.2
  Overall Sweetness At. mean score: 49.6
  liquorice At. mean score: 19.2
  Mouth coating Mf. mean score: 28.9
  Mouth drying Mf. mean score: 40.8
  Mouth watering Mf. mean score: 10.1
  Tingling Mf. mean score: 9.8
[2]; [4]
  Acid At. mean score: 5.5
  Artificial sweetness At. mean score: 30.0
  Bitter At. mean score: 18.1
  Overall Sweetness At. mean score: 46.2
  liquorice At. mean score: 16.2
  Mouth coating Mf. mean score: 24.7
  Mouth drying Mf. mean score: 39.8
  Mouth watering Mf. mean score: 15.7
  Tingling Mf. mean score: 8.8
[2]; at 20 seconds
  artificial sweetness score compared with the commercial RebA sample: significantly less
[2]; at 20 seconds, not statistically significantly different
  bitter score compared with the commercial RebA sample: lower
[2]; panellist reports
  off flavors: no reports of off flavors
